Series [1] concerns the target T1, ATAD2 recombinant bromodomain protein (Homo sapiens, UniProt Q6PL18).
T1 sequence (Q6PL18 980-1092 limits assumed): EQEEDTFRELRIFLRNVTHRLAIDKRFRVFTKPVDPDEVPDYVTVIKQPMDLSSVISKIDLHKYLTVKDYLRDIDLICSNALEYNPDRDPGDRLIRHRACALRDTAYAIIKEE
Briefly: ATAD2 enzymatic assay by TR-FRET technology. The series is classed as binding. Conditions: TR-FRET; for IC50: mean ± SD, read-out: Kinase inhibitory activity (IC50, μM) ATAD2. The method, then:
The assay was performed by TR-FRET technology using recombinant bromodomain and BET Ligand[8]. The compounds were diluted with indicated folds in 5% DMSO in reaction buffer and 2 µl of the dilution was added to a 20 µl reaction so that the final concentration of DMSO is 0.5% in all of the reactions. The 20 µl reaction mixture consists of the ATAD2 recombinant bromodomain protein, the indicated amount of the inhibitor, ligand, and the reactive dyes. The reaction mixture was incubated for 3 h before reading the TR-FRET signal. Fluorescence signals for both the donor and acceptor dyes were measured using a Tecan Infinite M1000 plate reader. Binding experiments were performed in duplicate at each concentration and the data were analysed using GraphPad Prism.

In series [2] the test system is BT-549 cells. Briefly: Cell viability (MTT) assay, anti-proliferative activity. Conditions: for IC50: Homo sapiens, MTT, 24 h, mean ± SD. The series is classed as cell-based. The method, then:
BT-549 cells were seeded at a density of 5 × 10^4 cells/ml in a 96-well plate. Following a 24-h incubation period, the cells were exposed to various concentrations of different compounds for the specified durations. Cell viability was evaluated using an MTT assay.

Series [3] deals with MDA-MB-231 cells. On the set-up: method as in PMID 32174193. Conditions: read-out: antiproliferative activity IC50 in MDA-MB-231 cells; cited from earlier work.
The test system of series [4] is ATAD2, c-Myc, and p-c-Myc^Ser62 in BT-549 cells. Briefly: Western blot of ATAD2, c-Myc and p-c-Myc Ser62. It is filed as cell-based. Conditions: BT-549 cells, 5, 10, 20 μM, 48h. The method, then: (§1) Cells were exposed to AM879, BAY-850 or compound 19f for the specified time intervals. Both adherent and floating cells were harvested and subsequently resuspended in a lysis buffer, followed by incubation at 4 °C for 1 h. Following centrifugation at 12,000 rpm for 20 min, the protein content of the supernatant was quantified using the BCA protein assay. Then protein were separated by 8–15% SDS-PAGE and transferred onto PVDF membranes. The membranes were blocked with blocking buffer and subjected to primary antibody incubation, followed by incubation with HRP-conjugated secondary antibody. Protein detection was achieved using ECL as the HRP substrate.

The next series deals with ATAD2. The note with it: cited from earlier work.
The subject of series [5] is p-c-Myc^Ser62 in BT-549 cells. Briefly: Immunofluorescence of p-c-Myc Ser62. It is filed as cell-based. Conditions: 48h. The method, then: To prevent non-specific antibody binding, BT-549 cells were treated with a blocking buffer (PBS +1.5% goat serum) prior to immunofluorescence staining. The cells were subsequently incubated with a p-c-Myc^Ser62 antibody (1:200) diluted in blocking buffer and allowed to incubate overnight at 4 °C. Afterward, the cells were further incubated with fluorescent-labelled secondary antibodies for 1 h at room temperature.

In another series the test system is MCF-10A cells. Briefly: Cell viability (Figure S1), normal breast cells. The series is classed as cell-based.
For series [6], the system named is BT-549 cells. Briefly: EdU-488 newly synthesised DNA assay. Conditions: BT-549 cells, 5, 10, 20 μM, 48h. The series is classed as cell-based.
Series [7] has as its system Bax, Bcl-2, Caspase-3, Caspase-8, Caspase-9, and PARP in BT-549 cells. Briefly: Western blot of apoptotic marker proteins. Conditions: BT-549 cells, 5, 10, 20 μM, 48h. It is filed as cell-based. The protocol:
as §1

Series [8] relates to BT-549 cells. Briefly: Apoptosis assay, Annexin-V/PI double staining. It is filed as cell-based. The note with it: BT-549 cells, 5, 10, 20 μM, 48h. An excerpt:
To assess apoptosis, BT-549 cells were exposed to varying concentrations of compound 19f, and apoptosis ratios were quantified via Annexin-V/PI double staining.

Series [9] relates to BT-549 cells. Briefly: 3D cell culture, cell sphere diameter. The series is classed as cell-based. The protocol: For 3D cell culture, 10,000 cells were placed in 96-well spherical plates for 24h and treated with different concentrations of compound 19f, […] or AM879. The diameter of the cell balls was measured by photographing.
Series [10] deals with MMP-2 and E-cadherin in BT-549 cells. Briefly: Western blot of migration markers. It is filed as cell-based. The note with it: BT-549 cells, 5, 10, 20 μM, 48h. The method, then: as §1
For orientation: Immunoblotting shows a protein as a band on a membrane.

The test system of series [11] is MDA-MB-231 cells. Briefly: Cell viability (Figure S1). It is filed as cell-based.
The test system of series [12] is BT-549 cells. Briefly: Colony formation assay. The series is classed as cell-based.
The subject of series [13] is BT-549 cells. Briefly: Wound healing assay. The series is classed as cell-based. The note with it: BT-549 cells, 2.5, 5, 10, 20 μM, 48h.
Series [14] relates to BT-549 cells. Briefly: Transwell migration assay. The series is classed as cell-based. The note with it: BT-549 cells, 5, 10, 20 μM, 48h. The protocol:
BT-549 cells were seeded into the upper chamber of a Transwell insert at a density of 15,000 cells per well. The cells were treated with either DMSO or compound 19f for 48 h, after which non-migrated cells were removed from the upper surface, while the migrated cells were stained with crystal violet. Then, the cells were washed with PBS and imaged using a phase-contrast microscope.

A word on the IC50: it is the concentration that gives 50% inhibition. In the case of `CC1=C(C#N)c2nc(N)c(C#N)cc2/C1=C\c1ccc(-c2cc(C(=O)O)ccc2Cl)o1` [AM879], the IC50 in series [1] was 3.49 ± 0.77 µM; in the series on BT-549 cells [2], 4.79 ± 0.52 µM; in the series on MDA-MB-231 cells [3], 2430 nM; in the series with ATAD2, 3500 nM. Besides, the “expression levels of c-Myc and p-c-Myc Ser62 (western blot)” value in [4] is “inhibited the expression levels of c-Myc and p-c-Myc^Ser62 in a dose-dependent manner”. The “expression of ATAD2 (western blot)” value in [4] is given as “no significant effect on the expression of ATAD2”.

As for `Cc1nnc2c(NC3CCN(CC(C)(C)F)CC3)cc(C(=O)N3C4Cc5ccccc5C3C(C(C)C)NC4=O)nn12` (centres unmarked) [AZ4347], the IC50 in the series with ATAD2 was 20 nM.

In turn, `COc1cc(Cl)c(C(=O)N[C@@H](CN[C@H]2CC[C@@H](N)CC2)Cc2ccc(C#N)cc2)cc1-c1ccc(CN[C@H](C)c2ccc(C)cc2)o1` [BAY-850] had an IC50 in the series on BT-549 cells [2] of 3.45 ± 0.59 µM. Also, in series [4], the “expression levels of c-Myc and p-c-Myc Ser62 (western blot)” value is “reduced c-Myc expression and ser62 the phosphorylation at ser62 in a dose-dependent manner”; the “expression of ATAD2 (western blot)” value is listed as “inhibited the expression of ATAD2”. For the same compound, the IC50 in the series on ATAD2 was 20 nM.

For the compound `C[C@H]1CCN(S(=O)(=O)c2cc(NC(=O)CN3C(=O)N[C@@](C)(C4CC4)C3=O)ccc2Br)C1` [Compound 2], the IC50 with ATAD2 is 63 nM.

As for `COc1ccc(C(=O)NC2CCCC2)cc1NC(=O)Cn1cnc2c(=O)n(C)c(=O)n(C)c21` [Compound 19f, N-cyclopentyl-3–(2-(1,3-dimethyl-2,6-dioxo-1,2,3,6-tetrahydro-9H-purin-9-yl)acetamido)-4-methoxybenzamide], in series [1], the “ATAD2 inhibitory activity, in words” value was “weaker ATAD2 inhibitory activity compared with BAY-850, but a stronger ATAD2 inhibitory activity than AM879” and the IC50 came out at 0.27 ± 0.05 µM. Besides, in series [5] (BT-549 cells, 10 μM), the “p-c-Myc Ser62 level compared with AM879 and BAY-850” value is “more significant impact on p-c-Myc^Ser62 level than AM879, and a similar result to the BAY-850”. Further, the “fluorescence intensity of p-c-Myc Ser62” value in series [5] (BT-549 cells, 5, 10, 20 μM) is recorded as “reduce the fluorescence intensity of p-c-Myc^Ser62 in a dose-dependent manner”. For the same compound, in the series with MCF-10A cells, the “cytotoxicity to normal breast MCF-10A cells” value is recorded as “did not show obvious cytotoxicity”. For the same compound, in the series with BT-549 cells [6], the “fluorescence intensity of EdU-488” value is “reduce the fluorescence intensity of EdU-488 in a dose-dependent manner”. Moreover, in the series with BT-549 cells [2], the “anti-proliferative activity in BT-549 cells, in words” value was “anti-proliferative activity comparable to BAY-850 and AM879”; the “antiproliferative activity relative to the positive drug BAY-850” value was “about one-fold weaker”; the IC50 is 5.43 ± 0.71 µM. In series [7], the “cleavage of caspase-8” value is recorded as “the cleavage of caspase-8 was not changed significantly”; the “expression of Bax, cleavage of caspase-3, caspase-9 and PARP” value is “promoted the expression of Bax, the cleavage of caspase-3, caspase-9 and PARP”; the “expression of Bcl-2” value was “the expression of Bcl-2 was significantly decreased”. Also, in series [4], the “expression levels of c-Myc and p-c-Myc Ser62 (western blot)” value was “inhibited the expression levels of c-Myc and p-c-Myc^Ser62 in a dose-dependent manner”; the “expression of ATAD2 (western blot)” value is given as “no significant effect on the expression of ATAD2”. Moreover, in the series with BT-549 cells [8], the “apoptosis induction, in words” value is given as “induce obvious apoptosis in a dose-dependent manner”. Moreover, the “diameter of 3D tumour cell spheres” value in the series with BT-549 cells [9] is on record as “dose-dependently reduce the diameter of the 3D tumour cell spheres”. In [10], the “expression of E-cadherin and MMP-2” value was “up-regulated the expression of E-cadherin and down-regulated MMP-2”. Moreover, the “anti-proliferative activity in MDA-MB-231 cells, in words” value in the series on MDA-MB-231 cells [11] is on record as “good anti-proliferative activity”. The colony formation ability result with BT-549 cells [12] is listed as “inhibit the colony formation ability of BT-549 cells in a concentration-dependent manner”. The relative wound area entry with BT-549 cells [13] was “increased the relative wound area in a dose-dependent manner”. The migrated cell number result in the series with BT-549 cells [14] is “decreased the migrated cell number in a dose-dependent manner”.

One may read the melting point as the temperature, or range, at which the solid turns liquid. On to `COc1ccc(C(=O)NC2CCCCCC2)cc1NC(=O)Cn1cnc2c(=O)n(C)c(=O)n(C)c21` [Compound 19l, N-cycloheptyl-3–(2-(1,3-dimethyl-2,6-dioxo-1,2,3,6-tetrahydro-9H-purin-9-yl)acetamido)-4-methoxybenzamide], for which the melting point was in the range of 197 to 198 °C. Also, in [1], the half-maximal inhibitory concentration (IC50) was over 25 µM. The compound also showed an IC50 in the series on BT-549 cells [2] of over 30 µM.

For `CC(C)N1CCc2c(nnn2CC(=O)Nc2ccc(Br)c(S(=O)(=O)N3CC[C@H](C)C3)c2)C1` [GSK232], the IC50 in the series with ATAD2 is 32 nM.

For `CO[C@H]1CNC[C@@H](OCC2CCC(F)(F)CC2)[C@@H]1Nc1ncc(-c2cncc(C)c2)c2cc(C)c(=O)[nH]c12` [GSK8814], the IC50 with ATAD2 was 59 nM.

(Values after paper PMC10402865, “Fragment-based design, synthesis and biological evaluation of theophylline derivatives as ATAD2 inhibitors in BT-549 cells” (Journal of Enzyme Inhibition and Medicinal Chemistry, 2023).)
